The source of these data is ChEMBL document CHEMBL1201862, “PubChem BioAssay data set” (2004).

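In this assay, cells in 96-well plates receive the compound at five concentrations for 48 hours. Endpoints are linearly interpolated between the surrounding concentrations. GI50 is the concentration that inhibits growth by half.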 The source made the active and inactive calls. No stated cut-off is given here; in the data, active = GI50 up to about 1.1 µM and inactive = higher. Some results are limits rather than exact numbers.

Holding throughout (assay): DTP human tumour cell line panel, 48 h
Test [1] has as its system A498.
In test [2] the test system is ACHN.
The subject of test [3] is COLO 205.
The subject of test [4] is EKVX.
In test [5] the test system is HL-60.
The test system of test [6] is HOP-62.
Test [7] concerns HOP-92.
The test system of test [8] is K562.
Test [9] relates to KM12.
The test system of test [10] is MCF7.
Test [11] has as its system MDA-MB-435.
The test system of test [12] is MDA-N.
The subject of test [13] is NCI-H226.
The subject of test [14] is NCI-H460.
Test [15] has as its system OVCAR-5.
For test [16], the system named is SF-295.
For test [17], the system named is SF-539.
Test [18] deals with SNB-19.
Test [19] deals with CCRF-CEM.
The test system of test [20] is MOLT-4.

For orientation: GI50 means the concentration at which growth is held to half of that of the control.

With `NNC(=O)CNc1cccc(Br)c1`, the GI50 was > 100 µM (inactive) in test [1]; > 100 µM (inactive) in [2]; > 100 µM (inactive) in test [3]; > 100 µM (inactive) in test [4]; 74.8 µM (inactive) in [5]; > 100 µM (inactive) in [6]. For the same molecule, the GI50 in test [7], in [8], in test [9], in test [10], in [11] and in test [12] was > 100 µM (inactive) each time. Moreover, the GI50 in test [13], in [14], in [15], in test [16], in test [17] and in test [18] was > 100 µM (inactive) in each case.

On to `O=C(C[n+]1ccc2ccccc2c1)c1ccc2ccc3ccccc3c2c1`, for which the GI50 in test [1] is 4.94 µM (inactive); in test [2], 2.22 µM (inactive); in test [19], 0.815 µM (active); in [3], 1.07 µM (active); in test [4], 6.27 µM (inactive); in test [6], 5.94 µM (inactive). Further, the GI50 in test [7] is 1.62 µM (inactive); in test [8], 0.151 µM (active); in [9], 1.33 µM (inactive); in [10] it was 2.39 µM (inactive); in [11] it was 0.841 µM (active); in test [12] it was 0.647 µM (active). Further, the GI50 in test [13] was 7.94 µM (inactive); in [14] it was 0.741 µM (active); in test [15], 5.07 µM (inactive); in test [16], 0.824 µM (active); in test [17], 0.483 µM (active); in [18], 2.6 µM (inactive).

Turning to `Cn1c(=O)c2c(nc3n2CCCC(=O)N3CC(O)CCl)n(C)c1=O` (stereo not given), the GI50 in test [1], in [2], in test [19], in [3], in [4] and in test [5] was > 100 µM (inactive) each time. Moreover, the GI50 in test [6], in [7], in test [8], in test [9], in test [10] and in test [11] was > 100 µM (inactive) throughout. Also, the GI50 in test [12], in test [20], in test [13], in [14], in test [15] and in [16] was > 100 µM (inactive) each time. Also, in [18], the GI50 was > 100 µM (inactive).

For the molecule `CCNC(=O)C1CCCN1C(=O)C(CCCN=C(N)N)NC(=O)C(CC(C)C)NC(=O)C(Cc1c[nH]c2ccccc12)NC(=O)C(Cc1ccc(O)cc1)NC(=O)C(CO)NC(=O)C(Cc1c[nH]c2ccccc12)NC(=O)C(Cc1c[nH]cn1)NC(=O)C1CCC(=O)N1` (stereo not given), the GI50 in test [1], in [2], in [19], in [3], in test [4] and in test [6] was > 100 µM (inactive) in each case. Besides, the GI50 in test [7], in test [8], in [9], in [10], in test [11] and in test [12] was > 100 µM (inactive) each time. The GI50 in test [20], in [13], in [14], in [15], in test [16] and in [17] was > 100 µM (inactive) each time. In addition, the GI50 in [18] is > 100 µM (inactive).

With `CCN(CC)c1ccc2c(c1)OC(=O)C(c1nnc(-c3ccc([N+](=O)[O-])cc3)o1)C2` (stereo not given), the GI50 was > 100 µM (inactive) in test [1]; > 100 µM (inactive) in test [2]; 34.2 µM (inactive) in [19]; > 100 µM (inactive) in test [3]; 10.2 µM (inactive) in test [4]; 84.5 µM (inactive) in test [5]. In addition, the GI50 in [6] is > 100 µM (inactive); in test [7] it was > 100 µM (inactive); in test [8] it was 38 µM (inactive); in test [9], > 100 µM (inactive); in test [10], > 100 µM (inactive); in [11], > 100 µM (inactive). In addition, the GI50 in test [12], in test [20], in test [13], in [14], in [15] and in test [16] was > 100 µM (inactive) throughout. In test [18], the GI50 is > 100 µM (inactive).

`CC1CCCN(CP(=O)(c2ccccc2)c2ccccc2)C1` (stereo not given): the GI50 was > 100 µM (inactive) in test [1]; > 100 µM (inactive) in test [2]; > 100 µM (inactive) in test [3]; > 100 µM (inactive) in [4]; 13.6 µM (inactive) in test [5]; > 100 µM (inactive) in test [6]. Also, the GI50 in [7], in test [8], in test [9], in test [10], in [11] and in [12] was > 100 µM (inactive) in each case. Also, the GI50 in test [13] was > 100 µM (inactive); in test [14], 92.5 µM (inactive); in test [15], > 100 µM (inactive); in test [16], > 100 µM (inactive); in test [17], > 100 µM (inactive); in [18], > 100 µM (inactive).

For `O=C1OCC2OC(=O)c3cc(O)c(O)c(O)c3-c3c(O)c(O)c(O)c4c3C(=O)OC(C2OC(=O)c2cc(O)c(O)c(O)c2-c2c1cc(O)c(O)c2O)C1OC(=O)c2c-4c(O)c(O)c(O)c2[C@@H]1C(O)C(O)C(O)C(O)CO` (stereo not given in full), the GI50 in test [1] is 26.4 µM (inactive); in test [2], 16.5 µM (inactive); in test [19], 4.75 µM (inactive); in test [3], 15.7 µM (inactive); in test [4] it was 19.8 µM (inactive); in test [5], 17 µM (inactive). The GI50 in test [6] is 17.9 µM (inactive); in test [7] it was 18.2 µM (inactive); in test [8], 10.5 µM (inactive); in test [9] it was 22 µM (inactive); in [10], 3.82 µM (inactive); in [11] it was 4.42 µM (inactive). For the same molecule, the GI50 in test [12] was 7.11 µM (inactive); in test [20], 20.4 µM (inactive); in test [13], 17.6 µM (inactive); in test [14] it was 17.6 µM (inactive); in [15], 16 µM (inactive); in [16] it was 20.1 µM (inactive). In addition, the GI50 in test [18] was 46 µM (inactive).
